This is an account of results in US20080038809A1, “ISOLATED LECTIN POLYPEPTIDES CONSISTING OF TRUNCATED […] UDP-GalNAc:POLYPEPTIDE N- ACETYLGALACTOSAMINYLTRANSFERASES” (GLYCOZYM APS, priority 2002, published 2008).

The target in experiment [1] is human GalNAc-T4 (UDP-GalNAc:polypeptide N-acetylgalactosaminyltransferase T4), secreted soluble enzyme (sT4), wild type (Homo sapiens, UniProt Q8N4A0). As to conditions: read-out: Concentration required for 50% inhibition (IC50), binding to GalNAc-MUC1 glycopeptide. The method, then: (§1) The pH of 1 ml purified protein (0.3 mg/ml) in PBS was adjusted to pH 9 with 1 M NaOH and 40 μl N-hydroxy-succinimidobiotin (Sigma) dissolved in DMF (10 mg/ml) was added. The solution was mixed end-over-end for 2 hours at room temperature, and dialyzed three times against PBS and an equal volume of glycerol was added. The biotinylated proteins were stored at −20° C. in 50% glycerol until use.
Chain of human GalNAc-T4 (UDP-GalNAc:polypeptide N-acetylgalactosaminyltransferase T4), secreted soluble enzyme (sT4), wild type (Q8N4A0 36-578 limits assumed): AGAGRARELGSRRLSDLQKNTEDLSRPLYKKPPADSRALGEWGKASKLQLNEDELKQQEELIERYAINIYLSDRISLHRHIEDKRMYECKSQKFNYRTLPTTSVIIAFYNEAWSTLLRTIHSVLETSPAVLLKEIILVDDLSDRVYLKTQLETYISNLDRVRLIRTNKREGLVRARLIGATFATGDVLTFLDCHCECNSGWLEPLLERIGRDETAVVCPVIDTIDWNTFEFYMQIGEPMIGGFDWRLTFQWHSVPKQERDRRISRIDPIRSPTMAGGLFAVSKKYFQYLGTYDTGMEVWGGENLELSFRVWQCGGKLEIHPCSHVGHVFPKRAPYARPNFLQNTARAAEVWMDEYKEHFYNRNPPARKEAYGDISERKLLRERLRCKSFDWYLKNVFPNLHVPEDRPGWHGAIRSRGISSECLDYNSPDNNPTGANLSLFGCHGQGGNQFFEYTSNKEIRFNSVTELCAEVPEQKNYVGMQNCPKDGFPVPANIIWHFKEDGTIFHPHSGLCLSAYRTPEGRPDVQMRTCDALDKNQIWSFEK
(§2) Glycopeptides were purified by C-18 reverse phase HPLC. Peptides were custom synthesized by Neosystems (Strasbourg). Biotinylated Helix Pomatia lectin (HPA) was from KemEnTec (Denmark). Anti-MUC1 HMFG2 monoclonal antibody was a generous gift from Joyce Taylor-Papadimitriou.
(§3) Direct binding ELISA assay was developed as follows: Polystyrene microtiter plates (Maxisorb, Nunc, Denmark) were coated with peptides or enzymatically glycosylated glycopeptides in PBS overnight at 4° C. Plates were washed and blocked with 0.1% Tween20 and 0.2% BSA in PBS for 1 h at room temperature, followed by incubation with biotinylated proteins in PBS with 0.05% Tween20 for 2 h at room temperature. After four washes with PBS, plates were incubated with 1:2,000 dilution streptavidin-HRP (Sigma) in PBS for 30 min at room temperature and washed four times with PBS. […]

Experiment [2] concerns the target human GalNAc-T4 (UDP-GalNAc:polypeptide N-acetylgalactosaminyltransferase T4) isolated truncated lectin domain (T4ld), HIS-tagged, amino acid residues 405-578 o (Homo sapiens, UniProt Q8N4A0). In words: biochemical. Type of experiment: binding. To be noted: read-out: Concentration required for 50% inhibition (IC50), binding to GalNAc-MUC1 glycopeptide. The source says: In order to minimize the size and functional complexity of GalNAc-transferase lectins to be used as probes for binding studies, we used multiple sequence alignment analysis to predict and design suitable expression constructs for isolated lectin domains (FIG. 2). In the present invention a direct binding assay was developed using isolated lectin domains of GalNAc-T4 and -T2 with minimal size (FIG. 5). […] The lectin Helix Pomatia (HP) was used as a control plant lectin with known binding specificity for […].
Direct binding ELISA assay was developed as follows: Polystyrene microtiter plates (Maxisorb, Nunc, Denmark) were coated with peptides or enzymatically glycosylated glycopeptides in PBS overnight at 4° C. Plates were washed and blocked with 0.1% Tween20 and 0.2% BSA in PBS for 1 h at room temperature, followed by incubation with biotinylated proteins in PBS with 0.05% Tween20 for 2 h at room temperature. After four washes with PBS, plates were incubated with 1:2,000 dilution streptavidin-HRP (Sigma) in PBS for 30 min at room temperature and washed four times with PBS. Development was performed with 0.5 mg/ml o-phenylenediamine and 0.02% H2O2 at room temperature for 15 min, and reaction stopped by adding 100 μl/well of 0.5 N H2SO4. Competitive inhibition assays were done at end-point titers of GalNAc-transferase proteins with one hour preincubations with inhibitor.
In binding studies using lectins without biotinylation antibodies to the HIS-tag and the T7-tag, or in some experiments antibodies raised to GalNAc-T2 and -T4 enzymes were used to detect binding.
Inhibition experiments were used to further define the binding specificity of GalNAc-T2 and -T4 secreted soluble enzymes as well as lectin domains compared to Helix Pomatia lectin (Table IV).
The ligand target used in this Example is a GalNAc-MUC1 glycopeptide produced enzymatically from synthetic peptides.

In experiment [3] the target is human GalNAc-T2 (UDP-GalNAc:polypeptide N-acetylgalactosaminyltransferase T2), secreted soluble enzyme (sT2), wild type (Homo sapiens, UniProt Q10471). In words: biochemical. The protocol:
as §1, §2, §3

Experiment [4] has as its system unglycosylated MUC1 peptide. As to the kind of experiment: Direct binding assay (ELISA) of biotinylated GalNAc-transferases to unglycosylated MUC1 peptide (FIG. 4). As to conditions: coated at 1 μg/ml, biotinylated enzymes. More on the design: species or system human. The protocol: (§4) FIG. 4 is a plot of absorbance v. ligand dilution showing GalNAc-transferase binding to GalNAc-MUC1 glycopeptide. A direct binding assay (ELISA) mediated by the lectin domain was developed and validated with soluble secreted GalNAc-T4 and -T2 enzyme proteins. ELISA plates were coated with peptides or glycopeptides at 1 μg/ml, blocked with BSA, and incubated with biotinylated enzymes. After washing, bound enzyme proteins were detected with HRP-Streptavidin as described in detail in Example 2. Secreted soluble constructs of GalNAc-transferases which are enzymatically active may bind to (glyco)peptide substrates through their catalytic units as originally described for GalNAc-T2^32.
as §3
In general terms: In an ELISA, binding on a coated surface is turned into a signal by an enzyme label.

The test system of another experiment is GalNAc-MUC1 glycopeptide. As to the kind of experiment: Direct binding assay (ELISA) of biotinylated GalNAc-transferases to GalNAc-MUC1 glycopeptide (FIG. 4). Set-up: species or system human. As to conditions: coated at 1 μg/ml, biotinylated enzymes. The method, then:
as §4, §3

Where two headings read alike, the source gives them in different places.

Chain of human GalNAc-T2 (UDP-GalNAc:polypeptide N-acetylgalactosaminyltransferase T2), secreted soluble enzyme (sT2), wild type (Q10471 52-571 limits assumed): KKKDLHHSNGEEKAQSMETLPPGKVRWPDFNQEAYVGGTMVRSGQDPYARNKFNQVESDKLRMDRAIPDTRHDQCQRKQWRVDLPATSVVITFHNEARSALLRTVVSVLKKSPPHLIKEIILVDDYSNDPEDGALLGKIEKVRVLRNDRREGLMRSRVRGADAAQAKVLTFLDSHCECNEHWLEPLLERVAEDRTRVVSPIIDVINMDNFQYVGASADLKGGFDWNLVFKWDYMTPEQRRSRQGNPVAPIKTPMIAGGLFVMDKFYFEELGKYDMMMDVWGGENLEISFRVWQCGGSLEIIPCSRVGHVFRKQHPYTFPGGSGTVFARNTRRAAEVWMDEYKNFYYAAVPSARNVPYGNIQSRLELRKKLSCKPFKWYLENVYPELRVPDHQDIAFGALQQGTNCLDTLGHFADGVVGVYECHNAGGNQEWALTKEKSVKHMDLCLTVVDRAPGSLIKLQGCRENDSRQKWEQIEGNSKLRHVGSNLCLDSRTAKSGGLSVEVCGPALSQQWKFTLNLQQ
Chain of human GalNAc-T4 (UDP-GalNAc:polypeptide N-acetylgalactosaminyltransferase T4) isolated truncated lectin domain (T4ld), HIS-tagged, amino acid residues 405-578 o (Q8N4A0 405-578): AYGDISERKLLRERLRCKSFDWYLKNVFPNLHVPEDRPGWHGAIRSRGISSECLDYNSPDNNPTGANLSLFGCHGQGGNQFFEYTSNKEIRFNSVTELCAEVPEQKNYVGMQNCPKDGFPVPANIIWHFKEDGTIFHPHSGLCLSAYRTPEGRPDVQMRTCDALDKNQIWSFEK

Turning to `CC(=O)N[C@H]1[C@@H](Oc2ccccc2)O[C@H](CO)[C@H](O)[C@@H]1O` [PhlαGalNAc], the IC50 stood at 1 mM in experiment [1]; 5 mM in experiment [2]; 5 mM in experiment [3] (read-out: Concentration required for 50% inhibition (IC50), binding to GalNAc-MUC1 glycopeptide).

On to `CC(=O)N[C@H]1[C@H](Oc2ccccc2[N+](=O)[O-])O[C@H](CO)[C@H](O)[C@@H]1O` [oNPβGalNAc], for which, in experiment [3] (binding to GalNAc-MUC1 glycopeptide), the IC50 stood at 10 mM.

Take “GalNAc-T2: soluble secreted human GalNAc-T2 enzyme protein, biotinylated”: the “binding to unglycosylated MUC1 peptide” value in experiment [4] was “no significant binding”. Also, the “binding to GalNAc-MUC1 glycopeptide” value with GalNAc-MUC1 glycopeptide is recorded as “selectively bind”.

Take “GalNAc-T4 wild type: soluble secreted human GalNAc-T4 enzyme protein, biotinylated”: in experiment [4], the “binding to unglycosylated MUC1 peptide” value is listed as “no significant binding”. For the same molecule, in the experiment with GalNAc-MUC1 glycopeptide, the “binding to GalNAc-MUC1 glycopeptide” value is given as “selectively bind”.
